What was measured:
[1] = Metabolic stability in pooled rat liver microsomes; type: in vitro ADME
Protocol: (§1) The depletion of the parent compound and the formation of metabolites in a time-dependent manner were explored in the presence or absence of an NADPH-generating system.
(§2) 3β-Hydroxy-17(1H-benzimidazol-1-yl)androsta-5,16-diene is incubated with pooled rat, dog, monkey and human liver microsomes at a protein concentration of 0.6 mg/mL. Incubation mixture contains either 0.1 M potassium phosphate buffer pH 7.4 or the incubation buffer. Following two minutes of pre-incubation of the incubation mixture at ˜37° C., the reaction is started by the addition of an NADPH-generating system (NADPH-GS) (1 mM NADP+, 5 mM glucose-6-phosphate, 1.0 unit/mL glucose-6-phosphate dehydrogenase) or 0.1 M phosphate buffer. At the appropriate time points (0, 15, 30, 60 and 120 minutes), reactions are stopped by the addition of appropriate stop solutions (0.1% formic acid in acetonitrile). The samples are centrifuged at approximately 10 000×g for 10 minutes at 20° C. An amount of supernatant from each sample is transferred to pre-labeled HPLC vials for analysis. Samples are analyzed by LC/MS to monitor the remaining parent compound or formation of potential metabolites. On each occasion, blank sample containing TOK-001 but without microsomes, is included.

[2] = Metabolic stability in pooled dog liver microsomes; type: in vitro ADME
Protocol: as §1, §2

[3] = Metabolic stability in pooled monkey liver microsomes; type: in vitro ADME; details: EDTA and MgCl2; for depletion (negative = increase in concentration): absence of NADPH-GS
Protocol: as §1, §2

[4] = Metabolic stability in pooled human liver microsomes; type: in vitro ADME
Protocol: as §1, §2

[5] = Solubility in incubation medium; type: physicochemical; details: presence versus absence of MgCl2/EDTA
Text: However, the role of the divalent cation, MgCl2 in the activation of the CYP 450 activity is not well defined (Saito et al., 2006, Tamura et al., 1988).

[6] = 10 μM, EDTA and MgCl2, up to 60 minutes
[7] = 10 μM, EDTA and MgCl2, without NADPH-GS, 120 minutes
[8] = EDTA and MgCl2, up to 120 minutes

C[C@]12CC[C@H](O)CC1=CC[C@@H]1[C@@H]2CC[C@]2(C)C(n3cnc4ccccc43)=CC[C@@H]12 [Compound (1), 3β-Hydroxy-17(1H-benzimidazol-1-yl)androsta-5,16-diene]
metabolic stability [1, 6]: metabolically stable | depletion of parent compound ([1]; 10 μM, EDTA and MgCl2, with NADPH-GS, 120 minutes): ~21% | change of parent compound in negative control [1, 7]: slight increase | metabolic stability [1, 8]: metabolically stable | recovery at 120 min, 10 μM ([1]; both sexes, rat, pooled rat liver microsomes, pH 7.4, 10 μM, 0.1 M phosphate buffer only, with NADPH-generating system, 120 minutes, read-out: recovery compared to the 0 minute incubation): ~86% | recovery at 60 min, 10 μM ([1]; both sexes, rat, pooled rat liver microsomes, 10 μM, phosphate buffer, 1 mM EDTA, 3 mM MgCl2, with NADPH-generating system, 60 minutes, read-out: recovery compared to the 0 minute incubation): ~85% | recovery at 120 min, 10 μM ([1]; both sexes, rat, pooled rat liver microsomes, 10 μM, phosphate buffer, 1 mM EDTA, 3 mM MgCl2, with NADPH-generating system, 120 minutes, read-out: recovery compared to the 0 minute): ~79% | depletion compared to the 0 minute incubation ([2]; 10 μM, 0.1 M phosphate buffer only, with NADPH-generating system, 120 minutes): ~25% | metabolic stability ([2]; 10 μM, 0.1 M phosphate buffer only, with NADPH-generating system, up to 60 minutes): metabolically stable | metabolic stability [2, 6]: metabolically stable | decrease of parent compound in negative control [2, 7]: ~21% | metabolic stability [2, 8]: metabolically stable | recovery at 60 min, 10 μM ([2]; both sexes, dog, pooled dog liver microsomes, 10 μM, phosphate buffer, 1 mM EDTA, 3 mM MgCl2, with NADPH-generating system, 60 minutes, read-out: recovery compared to the 0 minute): ~85% | depletion (negative = increase in concentration) ([3]; 10 μM, 30 minutes): ~−14% | depletion (negative = increase in concentration) ([3]; 10 μM, 120 minutes): ~−12% | depletion of parent compound ([3]; 10 μM, with NADPH-GS, 30 minutes): ~16% | metabolic stability ([3]; up to 120 minutes): less stable | depletion of parent compound ([4]; 10 μM, EDTA and MgCl2, absence of NADPH-GS): ~7% | depletion of parent compound ([4]; 10 μM, EDTA and MgCl2, with NADPH-generating system, over 120 minutes): ≤ 11% | metabolized (depletion) ([4]; 0.1 M phosphate buffer only, NADPH and time-dependent): ≥ 50% | metabolic stability [4, 8]: metabolically stable | recovery at 120 min, 10 μM ([4]; both sexes, human, pooled human liver microsomes, 10 μM, phosphate buffer, 1 mM EDTA, 3 mM MgCl2, with NADPH-generating system, over 120 minutes): ~89% | dissolution in incubation medium [5]: slightly better in the absence of MgCl2/EDTA

Reference: patent US20120282331A1, “MAMMALIAN METABOLITES OF STEROIDS” (TOKAI PHARMACEUTICALS, INC., priority 2009, published 2012)
